Source: patent US20100137398A1, “USE OF HDAC INHIBITORS FOR THE TREATMENT OF GASTROINTESTINAL CANCERS” (NOVARTIS AG, priority 2007, published 2010)

How the values were obtained:
Assay type in all cases: cell-based
[1] = tested on: 12 pancreatic cancer cell lines; assay: Cell proliferation assay, panel summary; details: 3 days treatment
Description: The MTT is a colorimetric assay to determine the cell proliferation rate. The yellow tetrazolium MTT (3-(4, 5-dimethylthiazolyl-2)-2, 5-diphenyltetrazolium bromide) is reduced, by metabolically active cells, in part by the action of dehydrogenase enzymes, to generate reducing equivalents such as NADH and NADPH. The resulting intracellular purple formazan can be solubilized and quantified by spectrophotometric means. The signals produced is directly proportional to the cell numbers. Describing the MTT assay in detail, experiments were done using six-point or 9 point drug titrations in multi-well tissue culture dishes, with outer rows left empty. Cells were suspended in complete media at densities of between 10^3 and 10^4 cell/ml, respectively, and added per well. The appropriate medium (200 μl) was then added. […] This plate was incubated at 37° for 4 hours and the optical density was measured on a Molecular Devices Thermomax at 490 nm using the Softmax program. […]
Compound addition began 24 hours after seeding, the same time as the T0 determination. […] The MTS solution was added (as for the T0 plate) and read four hours later. […]
Pancreatic cancer cell lines were treated with DMSO vehicle control or varying concentrations of LBH589 for 3 days. Cell proliferation was measured on the day of cell plating and on the third day post-treatment. IC50 and LD50 values were calculated as described above.

[2] = tested on: MDST8 colon cancer cell line; assay: Monolayer growth inhibition assay (MTT/MTS)
Description: (§1) The MTT is a colorimetric assay to determine the cell proliferation rate. The yellow tetrazolium MTT (3-(4, 5-dimethylthiazolyl-2)-2, 5-diphenyltetrazolium bromide) is reduced, by metabolically active cells, in part by the action of dehydrogenase enzymes, to generate reducing equivalents such as NADH and NADPH. The resulting intracellular purple formazan can be solubilized and quantified by spectrophotometric means. The signals produced is directly proportional to the cell numbers. Describing the MTT assay in detail, experiments were done using six-point or 9 point drug titrations in multi-well tissue culture dishes, with outer rows left empty. Cells were suspended in complete media at densities of between 10^3 and 10^4 cell/ml, respectively, and added per well. The appropriate medium (200 μl) was then added. Twenty-four hours later, 10 μl of MTS solution, were added to one plates to determine the activity at the time of compound addition (T0). This plate was incubated at 37° for 4 hours and the optical density was measured on a Molecular Devices Thermomax at 490 nm using the Softmax program. The T0 plate served as a reference for initial activity at the beginning of the experiment.
(§2) Compound addition began 24 hours after seeding, the same time as the T0 determination. Serial dilutions at 4-fold 2-fold, 1-fold, 0.5-fold, 0.25-fold and 0.125-fold of previously determined IC50 values of each compound were made in a 96-deep well plate with the highest concentrations on the edge of the plate. Each of the six dilutions were added in triplicate and complete medium was added to the empty outer rows, without cells. The compounds were added to the plates singly or in combination with Compound III (LBH589). The plates were incubated at 37° C. for 72 hours from seeding. The MTS solution was added (as for the T0 plate) and read four hours later. In order to analyze the data, the average value of media alone (background) was subtracted from each experimental well and the triplicate values were averaged for each compound dilution. The following formulas were used to calculate percent growth.
(§3) If X>T0, % Growth=100×(X−T0)/(GC−T0))
(§4) If X<T0, % Growth=100×(X−T0)/T0)
(§5) T0=average value of T0 minus background
(§6) GC=average value of untreated cells (in triplicate) minus background X=average value, of compound treated cells (in triplicate) minus background
(§7) IC50 the concentration of LBH589 required to inhibit cell growth by 50% and LD50s the concentration required to reduce cell number (kill cells) to 50% the original innoculum were determined. The “% Growth” was plotted against compound concentration and used to calculate IC50s and LD50s, employing the user-defined spline function in Microsoft Excel.
(§8) Colon cancer cell lines were treated with DMSO vehicle control or varying concentrations of LBH589 for 3 days. Cell proliferation was measured on the day of cell plating and on the third day post-treatment. IC50 and LD50 values were calculated as described above.

[3] = tested on: KM20L2 colon cancer cell line; assay: Monolayer growth inhibition assay (MTT/MTS)
Description: as §1, §2, §3, §4, §5, §6, §7, §8

[4] = tested on: Colo320DM colon cancer cell line; assay: Monolayer growth inhibition assay (MTT/MTS)
Description: as §1, §2, §3, §4, §5, §6, §7, §8

[5] = tested on: C2Bbe-1 colon cancer cell line; assay: Monolayer growth inhibition assay (MTT/MTS)
Description: as §1, §2, §3, §4, §5, §6, §7, §8

[6] = tested on: SW620 colon cancer cell line; assay: Monolayer growth inhibition assay (MTT/MTS)
Description: as §1, §2, §3, §4, §5, §6, §7, §8

[7] = tested on: HCT116 colon cancer cell line; assay: Monolayer growth inhibition assay (MTT/MTS)
Description: as §1, §2, §3, §4, §5, §6, §7, §8

[8] = tested on: HCT116 Bax −/− colon cancer cell line; assay: Monolayer growth inhibition assay (MTT/MTS)
Description: as §1, §2, §3, §4, §5, §6, §7, §8

[9] = tested on: Colo206F colon cancer cell line; assay: Monolayer growth inhibition assay (MTT/MTS)
Description: as §1, §2, §3, §4, §5, §6, §7, §8

[10] = tested on: SNU-C1 colon cancer cell line; assay: Monolayer growth inhibition assay (MTT/MTS)
Description: as §1, §2, §3, §4, §5, §6, §7, §8

[11] = tested on: SW403 colon cancer cell line; assay: Monolayer growth inhibition assay (MTT/MTS)
Description: as §1, §2, §3, §4, §5, §6, §7, §8

[12] = tested on: SW837 colon cancer cell line; assay: Monolayer growth inhibition assay (MTT/MTS)
Description: as §1, §2, §3, §4, §5, §6, §7, §8

[13] = tested on: Colo201 colon cancer cell line; assay: Monolayer growth inhibition assay (MTT/MTS)
Description: as §1, §2, §3, §4, §5, §6, §7, §8

[14] = tested on: CaCo2 colon cancer cell line; assay: Monolayer growth inhibition assay (MTT/MTS)
Description: as §1, §2, §3, §4, §5, §6, §7, §8

[15] = tested on: Colo741 colon cancer cell line; assay: Monolayer growth inhibition assay (MTT/MTS)
Description: as §1, §2, §3, §4, §5, §6, §7, §8

[16] = tested on: LOVO colon cancer cell line; assay: Monolayer growth inhibition assay (MTT/MTS)
Description: as §1, §2, §3, §4, §5, §6, §7, §8

[17] = tested on: CL-11 colon cancer cell line; assay: Monolayer growth inhibition assay (MTT/MTS)
Description: as §1, §2, §3, §4, §5, §6, §7, §8

[18] = tested on: HCT8 colon cancer cell line; assay: Monolayer growth inhibition assay (MTT/MTS)
Description: as §1, §2, §3, §4, §5, §6, §7, §8

[19] = tested on: SW48 colon cancer cell line; assay: Monolayer growth inhibition assay (MTT/MTS)
Description: as §1, §2, §3, §4, §5, §6, §7, §8

[20] = 3 days, concentration reducing cell number to 50% of original inoculum

Cc1[nH]c2ccccc2c1CCNCc1ccc(/C=C/C(=O)NO)cc1 [LBH589, N-hydroxy-3-[4-[[[2-(2-methyl-1H-indol-3-yl)ethyl]-amino]methyl]phenyl]-2E-2-propenamide]
IC50 values ([1]; all 12 pancreatic cancer cell lines): low nanomolar
LD50 ([1]; majority of the pancreatic cancer cell lines (n=10)): < 1 µM
IC50 ([2]; 72 h, MDST8, 3 days treatment): 4.87 nM
LD50 ([2]; MDST8, 3 days, concentration reducing cell number to 50% of original inoculum): 48.44 nM
IC50 ([3]; Homo sapiens, KM-20L2, 72 h, KM20L2, 3 days treatment): 14.6 nM
LD50 ([3]; KM20L2, 3 days, concentration reducing cell number to 50% of original inoculum): 16.95 nM
LD50 [4, 20]: 1103.37 nM
IC50 ([4]; Homo sapiens, COLO 320DM, 72 h, 3 days treatment): 29.5 nM
LD50 ([5]; C2Bbe-1, 3 days, concentration reducing cell number to 50% of original inoculum): 243.12 nM
IC50 ([5]; Homo sapiens, C2BBe1, 72 h, C2Bbe-1, 3 days treatment): 27.5 nM
IC50 ([6]; Homo sapiens, SW-620, 72 h, SW620, 3 days treatment): 0.79 nM
LD50 ([6]; SW620, 3 days, concentration reducing cell number to 50% of original inoculum): 1.70 nM
LD50 ([7]; HCT116, 3 days, concentration reducing cell number to 50% of original inoculum): 51.72 nM
IC50 ([7]; Homo sapiens, HCT-116, 72 h, HCT116, 3 days treatment): 7.11 nM
LD50 [8, 20]: >10 µM
IC50 ([8]; Homo sapiens, HCT-116, 72 h, 3 days treatment): 1.73 nM
LD50 [9, 20]: >10 µM
IC50 ([9]; COLO 206F, 72 h, 3 days treatment): 10.1 nM
IC50 ([10]; Homo sapiens, 72 h, SNU-C1, 3 days treatment): 4.51 nM
LD50 ([10]; SNU-C1, 3 days, concentration reducing cell number to 50% of original inoculum): 26.07 nM
IC50 ([11]; Homo sapiens, SW-403, 72 h, SW403, 3 days treatment): 2.03 nM
LD50 ([11]; SW403, 3 days, concentration reducing cell number to 50% of original inoculum): 9.84 nM
IC50 ([12]; Homo sapiens, 72 h, SW837, 3 days treatment): 0.66 nM
LD50 ([12]; SW837, 3 days, concentration reducing cell number to 50% of original inoculum): 11.46 nM
LD50 ([13]; Colo201, 3 days, concentration reducing cell number to 50% of original inoculum): 20.14 nM
IC50 ([13]; Homo sapiens, COLO 201, 72 h, Colo201, 3 days treatment): 15.1 nM
LD50 ([14]; CaCo2, 3 days, concentration reducing cell number to 50% of original inoculum): 45.55 nM
IC50 ([14]; Homo sapiens, Caco-2, 72 h, CaCo2, 3 days treatment): 13.8 nM
LD50 ([15]; Colo741, 3 days, concentration reducing cell number to 50% of original inoculum): 33.73 nM
IC50 ([15]; Homo sapiens, COLO-741, 72 h, Colo741, 3 days treatment): 9.22 nM
LD50 [16, 20]: 52.01 nM
IC50 ([16]; Homo sapiens, 72 h, 3 days treatment): 4.37 nM
IC50 ([17]; 72 h, CL-11, 3 days treatment): 3.54 nM
LD50 ([17]; CL-11, 3 days, concentration reducing cell number to 50% of original inoculum): 25.92 nM
LD50 ([18]; HCT8, 3 days, concentration reducing cell number to 50% of original inoculum): 77.70 nM
IC50 ([18]; Homo sapiens, HCT-8, 72 h, HCT8, 3 days treatment): 4.94 nM
IC50 ([19]; Homo sapiens, 72 h, SW48, 3 days treatment): 1.29 nM
LD50 ([19]; SW48, 3 days, concentration reducing cell number to 50% of original inoculum): 13.09 nM
